Tests used:
human fibroblasts = experiment: MTT toxicity assay; type: cell-based; details: compounds 4 and 5 measured as a mixture, concentrations up to 500 μM
Experimental: For toxicity studies, mouse myoblasts or human fibroblasts were plated in a 96-well tissue culture plate in DMEM (10% fetal bovine serum, 100 units/ml penicillin, […]) and allowed to grow to approximately 80% confluence at 37° C. under CO2. Varying compound concentrations (up to 1 mM) were incubated with cells (48 hours, 37° C.). Media was then removed, and 3-(4,5-dimethylthiazol-2-yl)-2,5-diphenyltetrazolium bromide (“MTT”) in media was added to each well and incubated at 37° C. for 4 h. After removal of the MTT media, isopropanol (100 pp was added, and absorbance was measured at 600 nm on a Modulus microplate reader (Turner Biosystems).
(§1) SPR and fluorescence titration experiments, performed using the protocol described in Examples 3 and 4 above, except using as the target a highly conserved RNA sequence responsible for regulating the production of the Gag-Pol polyprotein via a −1 ribosomal frameshift, which occurs along a “slippery sequence” in gag-pol mRNA (SEQ ID NO: 7). This “frameshift stimulatory sequence” (or “HIV-1 FSS”) consists of an upper stemloop and a lower stem, separated by a purine bulge in the most common types of HIV (FIG. 19). For the fluorescent titration experiments, the upper stemloop of SEQ ID NO: 7 was employed. Cell uptake and toxicity studies were carried out using human fibroblasts according to Example 5 above.

[1] = system: HIV-1 FSS RNA (SEQ ID NO: 7); experiment: SPR binding to immobilized biotinylated RNA
Experimental: SPR binding measurements were performed on a Biacore-X instrument (Biacore, Inc., Uppsala, Sweden) with two flow channels (FC1 and FC2). 5′-Biotinylated-RNA sequences, with a C6 linker separating the biotin label from the RNA (Integrated DNA Technologies Inc.) were immobilized on streptavidin (Rockland Immunochemicals) functionalized carboxylmethyl dextran coated sensor chips (CM5, G.E. Healthcare) using EDC/NHS (Advanced ChemTech) coupling chemistry. Filtered (0.2μ), degassed and autoclaved HBS-N buffer (0.01M Hepes, pH=7.4, 0.15 M NaCl) was employed as sample and as running buffer for all SPR experiments. A typical protocol for an experiment is as follows: A CM5 sensor chip was allowed to equilibrate to room temperature and then docked into the instrument. Following priming with running buffer, FC1 and FC2 were conditioned by manual injection of 20 μL aqueous NaOH (50 mM) at a flow rate of 30 μL/min. This was repeated 3 times followed by a wash command. Next, the carboxyl groups on the sensor chip surface in both flow cells were activated separately by injecting 60 μL of freshly prepared 1:1 mixture of EDC (0.4 M) and NHS (0.1 M) at a 5 μL/min flow rate followed by a wash. […] After washing, the surface was deactivated with 60 μL injection of ethanolamine (1M, pH=8.5) at 5 μL/min. The flow cells were primed, and the streptavidin surface in FC1 alone was blocked with 30 μL of biotin (20 μM in HBS-N) at 5 μL/min. The RNA (200 nM in running buffer, HBS-N) to be immobilized was unfolded by heating above its predicted melting temperature in a heated block for 2 min and then allowed to refold by cooling gradually to room temperature. The RNA was then immobilized in FC2 alone to response units ranging from 200-1000 RU using a 5 μL/min flow rate. Representative sensorgrams for the immobilization procedure is shown in FIGS. 2A-B. Two 20 μL aliquots of NaCl (0.5 M) were injected at a 30 μL/min flow rate to remove non-specifically bound RNA. The level of RNA immobilized was noted when the baseline was stable, usually after repeated buffer injection followed by a “prime” command. Binding measurements were performed by flowing various concentrations of the compounds to be analyzed over the immobilized RNA and recording the reference-subtracted (FC2−FC1) sensorgrams. For kinetic analysis, at least five sensorgrams corresponding to different concentrations of compound (usually ranging from 0.05-1 μM in HBS-N) were obtained using flow rates of either 60 μL/min or 30 μL/min. The experimental sensorgrams were globally fitted to a 1:1 binding equation (Biaevaluation software) to obtain association rates (ka) and dissociation rates ([…]) as well as equilibrium binding constants (KD). To measure the binding stoichiometry (n), the relations in equations (1-3) below were used: […]
where RUmax is the maximum resonance response unit at saturation, RURNA is the amount RU of RNA immobilized, n is the stoichiometry, MWcompound and MWRNA are molecular weights of compound and RNA respectively, and RUeq represents the resonance response at steady-state (equilibrium). The response units at equilibrium were subjected to Scatchard binding plots of (r/Cfree vs. r). […]
as §1

(CUG)10 RNA = experiment: Fluorescence titration (benzo[g]quinoline quenching); type: binding; details: (CUG)10, 1 μM compound in HBS-N, read-out: Apparent KD
Experimental: The benzo[g]quinoline moiety is fluorescent, with excitation and emission maxima at 362 nm and 439 nm respectively in methanol. Fluorescence titration binding measurements were performed on a Cary Eclipse fluorescence spectrophotometer using a 10 mm path-length semimicro quartz fluorescence cell with 400 μL sample holding capacity. Absorbance measurements were carried out on a UV-Visible spectrophotometer (Shimadzu, UV-1601PC) using a 1 mL (1 cm path-length) quartz cell. Spectroscopic grade anhydrous methanol used in the measurement of relative quantum yield of the 2-ethyl benzo[g]quinoline carboxylic acid was purchased from Alfa Aesar and was used without further purification. For these measurements, known procedures were used (Lee and Grissom, “Design, Synthesis, and Characterization of Fluorescent Cobalamin Analogues with High Quantum Efficiencies,” Org. Lett. 11:2499-2502 (2009); Joseph R. Lakowicz, Principles of Fluorescence Spectroscopy, 2nd edition (Kluwer Academic/Plenum Publishers, 1999), which are hereby incorporated by reference in their entirety). Briefly, RNA (10 μM stock) in HBS-N buffer was titrated into a solution of 1 μM compound in HBS-N. After each addition of RNA, ten minutes were allowed for equilibration before recording the change in fluorescence at 468.5 nm. Fluorescence units (“FU”) were then corrected for dilution and the FU after each addition was subtracted from the FU at zero RNA concentration to give AFU. Following saturation, AFU was plotted against RNA concentration using Origin 7 (OriginLab, Inc.), and fitted to a 1:1 Langmuir binding model to obtain apparent dissociation constants (Kn). […]
Selected equilibrium affinities for (CUG)10 were confirmed by fluorescence titration. The quantum yield of the ethylbenzo[g]quinoline carboxylic acid (compound 2), relative to quinine sulfate, was determined to be 0.64 (FIGS. 5A-F). […] Apparent KD values measured in this manner are consistent with those obtained by SPR (Table 6); that they are not identical to SPR-measured values likely results from the differing formats of the two methods. […]

Compound	toxicity (MTT) (human fibroblasts)	Residence time (t1/2) for compound binding to RNA [1] [s]	Off-rates (koff) ([1]; SPR) [s⁻¹]	On-rates (kon) ([1]; SPR) [M⁻¹ s⁻¹]	Kd ([1]; SPR, read-out: apparent KD) [nM]	Kd ((CUG)10 RNA) [nM]
CCc1nc2cc3ccccc3cc2cc1C(=O)N1CCC[C@H]1C(=O)N[C@@H](C/C=C\C[C@H](NC(=O)[C@@H]1CCCN1C(=O)c1cc2cc3ccccc3cc2nc1CC)C(=O)N[C@@H](CCCCN)C(=O)NCCCN)C(=O)N[C@@H](CCCCN)C(=O)NCCCN [Compound 4]	no significant toxicity	45.29	0.0153	11300	1242.5 ± 0.6	66.3 ± 2.1
CCc1nc2cc3ccccc3cc2cc1C(=O)N1CCC[C@H]1C(=O)N[C@@H](C/C=C/C[C@H](NC(=O)[C@@H]1CCCN1C(=O)c1cc2cc3ccccc3cc2nc1CC)C(=O)N[C@@H](CCCCN)C(=O)NCCCN)C(=O)N[C@@H](CCCCN)C(=O)NCCCN [Compound 5]	no significant toxicity	176.34				70.4 ± 1.1

Reference: patent publication US20140050778A1, “NUCLEIC ACID BINDING COMPOUNDS, METHODS OF MAKING, AND USE THEREOF” (UNIVERSITY OF ROCHESTER, priority 2010, published 2014)
